Measurements from article PMC9619402 (Journal of Medicinal Chemistry, 2022).
Values after ≈ are worked out from the molar mass of the structure shown. Where two headings read alike, the source gives them in different places. Marks after values point to notes of the source that are not given here.

Tests used:
[1] = target: LIMK2 (LIMK2_347–659, kinase catalytic domain) (Homo sapiens, UniProt P53671); format: biochemical
[2] = target: PAK pLIMK2 (PAK-phosphorylated LIMK2) (Homo sapiens, UniProt P53671); format: biochemical; details: 6 nM LIMK2 + 0.2 nM PAK1 kinase domain; mean ± SEM
[3] = target: T1, LIMK1 (NanoLuc LIMK1 kinase fusion) (Homo sapiens, UniProt P53667); format: cell-based; details: HEK293 cells, 2 h; mean ± SEM
T1 construct: host or cells: HEK293
Description: (§1) HEK293 cells were resuspended in growth media following routine trypsinization, neutralization, and sedimentation techniques. Cell density was adjusted to 1 ×10^5 cells/mL for each transfection in a total of 25 mL media. The transfection mix was added directly to the cells and mixed gently by inversion. The cells were then plated into T-75 tissue culture flasks and incubated for 20 h.
(§2) Kit components were purchased from Promega (Hampshire, U.K.). […] NanoBRET Tracer #10 (27.5 μL) was diluted in 192.5 μL of DMSO for use as a positive control, which was further diluted with 880 μL of tracer dilution buffer. For negative control, 20 μL of DMSO was added to 80 μL of tracer dilution buffer. LIMK1/2-transfected HEK293 cells were trypsinized, centrifuged, and resuspended in 10 mL of Opti-MEM. Extracellular NanoLuc inhibitor was added at 1:10,000 dilution to the cells, after which 85 μL of cells/well were plated into flat-bottomed, white, 96-well plates. For positive control wells, 5 μL of NanoBRET Tracer #10 was added to wells without compound. For negative controls, the DMSO/tracer dilution buffer solution was added to wells without compound. For test compounds, 10 μL of diluted compounds from the intermediate plate were added in duplicate or DMSO (for control wells) at a final concentration of 0.5% DMSO in Opti-MEM. Plates were incubated at 37 °C and 5% CO2 for 2 h. […] A solution of Nano-Glo substrate was made consisting of 72 μL of Nano-Glo substrate and 11.93 mL of Opti-MEM (without phenol red) and mixed gently by inversion 5–10 times.

[4] = target: T2, LIMK2 (NanoLuc LIMK2 kinase fusion) (Homo sapiens, UniProt P53671); format: cell-based; details: HEK293 cells, 2 h; mean ± SEM
T2 construct: host or cells: HEK293
Description: as §1, §2

[5] = tested on: p-cofilin levels in SH-SY5Y cells; experiment: cells; details: Homo sapiens, 2 h, read-out: AlphaLISA pIC50 p-cofilin (converted)
Description: SH-SY5Y cells were plated into a 96-well plate at 20,000 cells/well. The next day, compounds were prepared in an 8-point, 3-fold serial dilution in DMSO and then further diluted to 20-fold in DMEM/F12 with 10% FBS, 1% antibiotics. SH-SY5Y cell media was replaced with fresh DMEM/F12 media containing 10% FBS and 1% antibiotics. Compounds were added to the SH-SY5Y cells in duplicate at a final compound concentration of 10 μM to 3 nM. LIMKi3 (10 μM) was used as a positive control and 0.5% DMSO was used as a negative control. Cells were placed in the incubator for 2 h, after which the media was removed, and the cells were lysed using 50 μL of AlphaLISA 1× lysis buffer (Perkin Elmer) containing protease inhibitor cocktail (Sigma-Aldrich, Dorset, U.K.) and Pierce phosphatase inhibitor cocktail (Thermofisher, U.K.). Cells were placed on a plate shaker at 350 rpm at RT. Ten microliters of total cell lysate was then transferred to a clean, flat-bottom, white 384-well plate. An acceptor bead solution was made consisting of reaction buffer 1, reaction buffer 2, activation buffer, and acceptor beads from the p-Cofilin SureFire Ultra assay kit (Perkin Elmer, Cat# ALSU-PCOF-A500). To each well in the assay, 5 μL of the acceptor mix was added to the wells under dim light; the plate was placed on a plate shaker for 2 min at 450 rpm, centrifuged briefly, and the plate was incubated at RT for 1 h. A donor solution, consisting of dilution buffer and donor beads, was added at 5 μL/well, mixed on a plate shaker, centrifuged briefly, and incubated at RT for 1 h. Finally, the plate was read on a Pherastar reader (BMG Labtech Ltd., Aylesbury, U.K.) using an AlphaLISA cartridge and AlphaLISA plate settings.

[6] = Caco-2 permeability; format: in vitro ADME; details: for efflux ratio: Caco-2, Table S1
[7] = target: LIMK1 (LIMK1_330–637, kinase catalytic domain) (Homo sapiens, UniProt P53667); details: for preference between LIMK1 and LIMK2: RapidFire, LIMK1 versus LIMK2, at best
[8] = target: PAK pLIMK1 (PAK-phosphorylated LIMK1) (Homo sapiens, UniProt P53667); experiment: RapidFire mass spectrometry kinase assay, PAK-phosphorylated LIMK1; details: 5 nM LIMK1 + 0.4 nM PAK1 kinase domain; mean ± SEM
[9] = Thermodynamic solubility; format: physicochemical; details: pH 7, PBS, 24 h room temperature; average of two experiments; read-out: aq. solubility
Description: The samples were then centrifuged at >10,000 rpm for 10 min to pellet any remaining solid. […] To prepare the standard, an 8-point, 1:3 dilution curve was prepared in DMSO with a top concentration of 1 mM, which was then diluted to 1:100 in acetonitrile containing 2 μM of carbamazepine. Standards and samples were analyzed via LCMS/MS. The compound carbamazepine peak area ratios were calculated, and the test article solubility was determined by interpolation from the standard curve.

[10] = In vivo DMPK, IV dosing; details: male, Sprague-Dawley, rat
Description: In vivo studies were carried out under appropriate licenses at Pharmidex (U.K.), Sygnature Discovery (U.K.), or Sai Life (India) using male Sprague-Dawley rats. […] Serial plasma samples were obtained at predetermined time points and then stored at −20 °C. Samples were then thawed, protein-precipitated with acetonitrile followed by LCMS/MS quantification.

[11] = Microsomal stability, rat microsomes; details: pH 7.4
Description: (§3) After mixing thoroughly, the T = 0 sample (40 μL) was immediately quenched into an 80 μL ice-cold methanol containing a 4 μM internal standard (carbamazepine). Three further samples were quenched in the same way at T = 3, 9, and 30 min. Samples were incubated on ice for 30 min before centrifugation at 4700 rpm for 20 min. The supernatant was analyzed via LCMS/MS, and compound/carbamazepine peak area ratios were calculated to determine the rate of substrate depletion.

[12] = Microsomal stability, human microsomes; details: pH 7.4
Description: as §3

[13] = tested on: 468 kinases (scanMax panel); experiment: Eurofins/DiscoverX scanMax panel (KINOMEscan) kinome profile; format: binding; details: fraction of kinases bound >50%
[14] = 15 nM LIMK2 catalytic domain, 4 μM CFL1, 2 mM ATP, mean ± SEM, pIC50 greater than 8.1 treat with caution
[15] = 40 nM LIMK1 catalytic domain, 4 μM CFL1, 2 mM ATP, mean ± SEM, at least three experiments unless footnoted, pIC50 greater than 7.7 treat with caution

Chain of LIMK2 (LIMK2_347–659, kinase catalytic domain) (P53671 326-638 limits assumed): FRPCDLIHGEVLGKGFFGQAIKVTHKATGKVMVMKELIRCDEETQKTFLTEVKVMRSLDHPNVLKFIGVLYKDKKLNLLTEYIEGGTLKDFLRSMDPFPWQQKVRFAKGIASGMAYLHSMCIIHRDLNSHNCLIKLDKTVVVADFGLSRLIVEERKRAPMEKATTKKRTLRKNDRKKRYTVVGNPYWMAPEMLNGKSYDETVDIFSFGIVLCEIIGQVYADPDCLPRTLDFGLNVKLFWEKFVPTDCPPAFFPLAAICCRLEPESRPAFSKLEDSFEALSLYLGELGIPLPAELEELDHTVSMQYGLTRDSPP
Chain of PAK pLIMK2 (PAK-phosphorylated LIMK2) (P53671 326-638 limits assumed): as above
Chain of LIMK1 (LIMK1_330–637, kinase catalytic domain) (P53667 330-637): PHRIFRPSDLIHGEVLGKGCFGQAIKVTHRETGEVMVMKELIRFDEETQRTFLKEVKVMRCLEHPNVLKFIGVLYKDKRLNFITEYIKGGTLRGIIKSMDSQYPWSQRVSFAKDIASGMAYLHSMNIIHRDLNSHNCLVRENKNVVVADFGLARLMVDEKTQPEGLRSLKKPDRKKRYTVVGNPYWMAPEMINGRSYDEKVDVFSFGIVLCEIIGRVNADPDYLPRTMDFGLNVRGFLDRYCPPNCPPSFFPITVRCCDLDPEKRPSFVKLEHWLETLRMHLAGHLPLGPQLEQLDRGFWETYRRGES
Chain of PAK pLIMK1 (PAK-phosphorylated LIMK1) (P53667 330-637): as above
T1 sequence (P53667 whole entry, the tested form may be a part): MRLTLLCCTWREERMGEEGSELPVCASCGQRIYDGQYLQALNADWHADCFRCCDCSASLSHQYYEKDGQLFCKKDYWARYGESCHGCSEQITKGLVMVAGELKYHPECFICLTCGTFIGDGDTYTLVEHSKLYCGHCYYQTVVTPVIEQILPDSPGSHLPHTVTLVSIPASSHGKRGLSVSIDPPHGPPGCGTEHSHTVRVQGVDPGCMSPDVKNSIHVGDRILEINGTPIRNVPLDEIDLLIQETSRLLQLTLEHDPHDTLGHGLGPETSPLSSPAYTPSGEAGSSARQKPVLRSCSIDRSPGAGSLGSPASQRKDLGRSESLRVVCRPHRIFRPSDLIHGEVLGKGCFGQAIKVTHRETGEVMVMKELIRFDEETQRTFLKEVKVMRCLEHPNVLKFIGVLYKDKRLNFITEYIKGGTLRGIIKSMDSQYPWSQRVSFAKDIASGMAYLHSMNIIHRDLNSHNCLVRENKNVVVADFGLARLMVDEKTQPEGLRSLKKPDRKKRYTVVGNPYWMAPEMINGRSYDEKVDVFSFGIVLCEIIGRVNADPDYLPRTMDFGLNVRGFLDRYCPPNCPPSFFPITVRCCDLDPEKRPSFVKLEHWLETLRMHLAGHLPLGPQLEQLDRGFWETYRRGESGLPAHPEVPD
T2 sequence (P53671 whole entry, the tested form may be a part): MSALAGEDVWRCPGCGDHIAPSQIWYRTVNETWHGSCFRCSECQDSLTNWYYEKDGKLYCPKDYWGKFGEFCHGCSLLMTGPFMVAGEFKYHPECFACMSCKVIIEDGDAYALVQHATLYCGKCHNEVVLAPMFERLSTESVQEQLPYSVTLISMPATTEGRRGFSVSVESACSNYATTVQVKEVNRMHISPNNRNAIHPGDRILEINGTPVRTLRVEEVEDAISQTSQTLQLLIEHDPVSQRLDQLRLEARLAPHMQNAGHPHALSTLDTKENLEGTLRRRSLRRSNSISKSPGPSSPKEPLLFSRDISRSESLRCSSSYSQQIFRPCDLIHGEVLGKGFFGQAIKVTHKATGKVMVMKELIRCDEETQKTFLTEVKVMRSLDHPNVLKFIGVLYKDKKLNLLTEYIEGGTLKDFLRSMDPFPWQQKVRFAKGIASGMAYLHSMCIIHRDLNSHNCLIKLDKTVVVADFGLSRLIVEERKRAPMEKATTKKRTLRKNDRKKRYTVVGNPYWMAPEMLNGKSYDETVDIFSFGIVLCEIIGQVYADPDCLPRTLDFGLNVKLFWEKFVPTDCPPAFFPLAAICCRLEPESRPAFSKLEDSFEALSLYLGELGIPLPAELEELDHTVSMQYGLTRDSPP

## Cc1cc(Nc2cc(CN3CCOCC3)c3nc(C)c(Cc4ccc(Cl)cc4F)n3n2)n[nH]1 [Compound 13, gandotinib]
[1]; [14]
  RapidFire pIC50 LIMK2: <5
[2]
  RapidFire pIC50 PAK pLIMK2: 5.22 ± 0.05
[3]
  NanoBRET pIC50 LIMK1: <5
[4]
  NanoBRET pIC50 LIMK2: <5
[5]
  IC50: > 10000 nM
[6]
  efflux ratio: high efflux
[6]; human, read-out: Efflux ratio
  efflux ratio: 10.2
[7]; [15]
  RapidFire pIC50 LIMK1: 6.40 ± 0.03
[7]
  preference between LIMK1 and LIMK2: ~10 fold
[8]
  RapidFire pIC50 PAK pLIMK1: 5.98 ± 0.06

## Cc1c[nH]c2ncnc(N3CCN(C(=O)Nc4cccc(OC(=O)N(C)C)c4)[C@@H](C)C3)c12 [Compound 6]
[1]
  RapidFire pIC50 LIMK2: 8.74 ± 0.12
[2]
  RapidFire pIC50 PAK pLIMK2: 7.68 ± 0.07
[3]
  NanoBRET pIC50 LIMK1: 8.28 ± 0.08
[4]
  NanoBRET pIC50 LIMK2: 8.61 ± 0.04
[5]
  IC50: 3.02 nM
[7]
  RapidFire pIC50 LIMK1: 8.70 ± 0.07
[8]
  RapidFire pIC50 PAK pLIMK1: 7.68 ± 0.04

## CCNC(=O)Nc1ncc(-c2cc(-c3c(C)cc(OC)cc3C)nc(-c3cnccn3)n2)s1 [Compound 3]
[1]; [14]
  RapidFire pIC50 LIMK2: 6.87 ± 0.10
[2]
  RapidFire pIC50 PAK pLIMK2: 6.15 ± 0.04
[3]
  NanoBRET pIC50 LIMK1: 6.45 ± 0.14
[4]
  NanoBRET pIC50 LIMK2: 6.33 ± 0.12
[5]
  IC50: 457 nM
[7]; [15]
  RapidFire pIC50 LIMK1: 7.25 ± 0.06
[8]
  RapidFire pIC50 PAK pLIMK1: 5.64 ± 0.06

## CCc1cccc(CC)c1NC(=O)N1Cc2n[nH]c(NC(=O)c3ccc(N4CCN(C)CC4)cc3)c2C1 [Compound 11]
[1]; [14]
  RapidFire pIC50 LIMK2: 5.10 ± 0.04
[2]
  RapidFire pIC50 PAK pLIMK2: <5
[3]
  NanoBRET pIC50 LIMK1: <5
[4]
  NanoBRET pIC50 LIMK2: <5
[5]
  IC50: > 10000 nM
[6]
  efflux ratio: high efflux
[6]; human, read-out: Efflux ratio
  efflux ratio: 279
[7]; [15]
  RapidFire pIC50 LIMK1: 6.39 ± 0.03
[7]
  preference between LIMK1 and LIMK2: ~10 fold
[8]
  RapidFire pIC50 PAK pLIMK1: 6.24 ± 0.04

## Cc1c[nH]c2ncnc(-c3ccc(NC(=O)N(CCO)c4ccccc4)cc3)c12 [Compound 8]
[9]
  solubility at 24 h: 28 µM (≈ 10.8 µg/mL)
[10]
  clearance: 4.2 mL/min/kg
  half-life: 2.2 h
[10]; 1 mg/kg
  Vd: 0.5 L/kg
[11]
  microsomal CLint at 0.5 h, 4 µM: 18 µL/min/mg
[12]
  microsomal CLint at 0.5 h, 4 µM: 8 µL/min/mg

## CN1C(=O)[C@@H](N2CCc3c(nn(Cc4ccccc4)c3C(N)=O)C2=O)COc2cc(Cl)ccc21 [Compound 17]
[13]; 1000 nM
  kinome S50: 0.01 (468, 1,000 nM)

## O=C(Nc1ncc(-c2cc(C(F)F)nn2-c2c(Cl)cccc2Cl)s1)C1CC1 [Compound 2]
[1]; [14]
  RapidFire pIC50 LIMK2: 7.52 ± 0.04
[2]
  RapidFire pIC50 PAK pLIMK2: 6.56 ± 0.06
[3]
  NanoBRET pIC50 LIMK1: 7.09 ± 0.08
[4]
  NanoBRET pIC50 LIMK2: 7.79 ± 0.02
[5]
  IC50: 39.8 nM
[7]; [15]
  RapidFire pIC50 LIMK1: 7.75 ± 0.04
[8]
  RapidFire pIC50 PAK pLIMK1: 7.00 ± 0.03

## Cn1cc(-c2[nH]c3cc(NC(=O)[C@H](N)C4CCCCC4)cc4c3c2C=NNC4=O)cn1 [Compound 16]
[1]; [14]
  RapidFire pIC50 LIMK2: <5
[2]
  RapidFire pIC50 PAK pLIMK2: 5.47 ± 0.04
[3]
  NanoBRET pIC50 LIMK1: 6.40 ± 0.04
[4]
  NanoBRET pIC50 LIMK2: 6.56 ± 0.02
[5]
  IC50: > 10000 nM
[7]; [15]
  RapidFire pIC50 LIMK1: 6.09 ± 0.07
[8]
  RapidFire pIC50 PAK pLIMK1: 6.76 ± 0.12

## Cc1cc(Nc2nc(N[C@@H](C)c3ccc(F)cc3)c(C#N)cc2F)n[nH]1 [Compound 12]
[1]
  RapidFire pIC50 LIMK2: 5.71 ± 0.14
[2]
  RapidFire pIC50 PAK pLIMK2: 5.18 ± 0.03
[3]
  NanoBRET pIC50 LIMK1: <5
[4]
  NanoBRET pIC50 LIMK2: <5
[5]
  IC50: > 10000 nM
[6]; human, read-out: Efflux ratio
  efflux ratio: 1.01
[7]
  RapidFire pIC50 LIMK1: 6.82 ± 0.06
  preference between LIMK1 and LIMK2: ~10 fold
[8]
  RapidFire pIC50 PAK pLIMK1: 6.52 ± 0.01

## CC(C)C(=O)Nc1ncc(-c2cc(C(F)F)nn2-c2c(Cl)cccc2Cl)s1 [Compound 4]
[10]
  Vd: 2 L/kg
[10]; 0.2 mg/kg
  half-life: 1.1 h
[6]; human, Caco-2, A – B
  Papp A→B: 8.8 ×10⁻⁶ cm/s
[6]; human, Caco-2, B – A
  Papp B→A: 12.4 ×10⁻⁶ cm/s

## Cc1c[nH]c2ncnc(N3CCC(CN)(C(=O)Nc4cccc(OC(=O)N(C)C)c4)CC3)c12 [Compound 7]
[2]
  RapidFire pIC50 PAK pLIMK2: 6.51 ± 0.04
[4]
  NanoBRET pIC50 LIMK2: 8.17 ^d
[9]
  solubility at 24 h: 451 µM (≈ 204 µg/mL)
[10]
  Vd: 6.4 L/kg
  clearance: 98.1 mL/min/kg
[10]; 0.5 mg/kg
  half-life: 1.3 h
[13]; 300 nM
  kinome S50: 0.13 (468, 300 nM)
[11]
  microsomal CLint at 0.5 h, 4 µM: 50 µL/min/mg
[12]
  microsomal CLint at 0.5 h, 4 µM: 3 µL/min/mg

## CCn1c(=O)c(-c2ccc(Cl)cc2Cl)cc2cnc(Nc3ccc(N4CCNCC4)c(F)c3)nc21 [Compound 1]
[13]; 1000 nM
  kinome S50: 0.54 (468, 1000 nM)
